Source: US7387806B2, “Method of using geranium oil and sophora root extracts as a supporting composition in cancer treatments” (priority 2001, dated 2008)

Assay: Pharmacokinetics study of intravenous injection of matrine or oxymatrine with addition of geranium oil
Method: The Sophora root typically is about 10-30 cm long, 1-2 cm in diameter and generally takes on a grayish brown or grayish yellow color. The root preferably has a mild scent and an extremely bitter taste. It is grown mainly in China, Korea, and Japan. Presently, the alkaloids identified in Sophora roots are matrine, oxymatrine, sophoranol, N-methylcytisine, anagyrine, baptifoline, sophocarpine, sophoridine, iso matrine, 7, 11-Dehydromatrine, sophoramine, 7-Dehydrosophoramine, 9α-Hydroxy-Sophoramine, 5α,9α-Dihydroxymatrine, N-Oxysophocarpine, sophoranol N-oxide, rhombifoline, Lupanine, Mamanine, Kuraramine, Isokuraramine, Kurarinol. The known main constituents are matrine, oxymatrine. The principal main constituents of Sophora flavescenes are also found in Sophora subprostrata, Sophora tonkinensis, Sophora alopecuroides, Sophora moorcroftiana, and Euchresta strigillosa.

| Structure (SMILES) | effect of addition of geranium oil on absorption and metabolism of the compound (intravenous injection, with vs without geranium oil) | effect of addition of geranium oil on absorption and metabolism of the compound (in vivo, iv) |
| --- | --- | --- |
| O=C1CCC[C@@H]2[C@H]3CCCN4CCC[C@@H](CN12)[C@@H]34 [matrine] | increase the absorption and metabolism | – |
| O=C1CCC[C@@H]2[C@H]3CCC[N+]4([O-])CCC[C@@H](CN12)[C@@H]34 (some centres unmarked) [oxymatrine] | – | increase the absorption and metabolism |
